Source: US7423115B2, “ARTS C-terminus fragments and mimetics thereof” (SimeTRA Pharm Ltd, priority 2005, dated 2008)

Columns and labels:
cells = experiment: Induction of apoptosis by the ARTS C terminus; type: cell-based
Description: Cells were incubated for 24 hours with no peptide (negative control) or with 100 micromolar (mcM) peptides corresponding to residues 1-9 (“pep1”), 10-18 (“pep2”), or 19-27 (“pep3”) of the ARTS C-terminus Apoptotic cells were detected using DAPI staining or TUNEL. For TUNEL assays, the cells were fixed and permeabilized. Apoptosis levels were determined using the TUNEL In situ™ cell death detection TMR kit (Roche) according to the manufacturer's protocol. All samples were coded, and experiments were performed in a blind manner.

[1] = target: T1, Bir3 domain of XIAP protein (Homo sapiens, UniProt P98170); experiment: Co-immunoprecipitation of myc-tagged ARTS C-terminus with GST-Bir3 on glutathione beads in transfected, staurosporine-treated COS-7 cells; type: binding; conditions: COS-7 cells co-transfected, 1.25 μM staurosporine for 1 hr, Western blot with anti-ARTS C-terminus antibody
T1 construct: vectors expressing either the Bir3 domain of XIAP protein fused to GST; expressed in transfected cells; host or cells: COS-7
Description: COS-7 cells were transfected with 2.5 μg each of vectors expressing either the Bir3 domain of XIAP protein fused to GST or the GST alone, together with the myc-tagged ARTS C-terminus or myc-ARTS alone. After 40 hr, cells were exposed to 1.25 μM staurosporine for 1 hr and then washed in phosphate-buffered saline (PBS), scraped off the dish, pelleted, resuspended in 20 μL lysis buffer (150 mM NaCl, 50 mM Tris-HCl (pH 8), 1% NP-40, 0.5% deoxycholate acid, protease inhibitors (Mini Complete®, Roche Applied Science, Indianapolis, Ind.), and incubated on ice for 20 min.
Lysis buffer was added to lysate containing 400 mcg total protein, to a final volume of 1 ml. 100 mcL of 20% glutathione beads was added, and the mixture was rotated at 7.5° C. overnight. Beads were centrifuged at 400×g for 2 min and washed 3 times in 1 ml RIPA buffer (0.1% SDS, 1% NP-40, 0.5% deoxycholate acid, 150 mM NaCl, 50 mM Tris-HCl (pH 8), protease inhibitors). The pellet was boiled for 5 min in an additional 25 mcL RIPA buffer and 10 mcL 4× loading buffer, then the sample was electrophoresed on an SDS poly-acrylamide gel, transferred to PVDF membrane, and subjected to Western blot using monoclonal antibody directed against the ARTS C-terminus. Blots were developed with the West Pico kit (Pierce Biotechnology, Rockford, Ill.).

T1 sequence (P98170 265-330 limits assumed): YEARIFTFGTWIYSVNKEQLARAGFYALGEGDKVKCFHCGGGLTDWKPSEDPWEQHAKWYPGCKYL

Interaction with GST-Bir3 domain of XIAP (co-precipitation with glutathione beads) [1]: co-precipitated
Sequence: YGPSLRLLAPPGAVKGTGQEHQGQGCH [ARTS C terminus]
Induction of apoptosis (cells): sufficient for induction of apoptosis
